According to US8968794B2, “Antiseptic compositions and uses thereof” (Ramot at Tel-Aviv University Ltd., priority 2009, dated 2015):

Columns and labels:
Experiment in all cases: Bactericidal activity, log10 CFU/ml after 0, 30 and 60 minutes
Type in all cases: cell-based
[1] = tested on: Escherichia coli ATCC 47076; conditions: baseline 7.3
Experimental: A frozen stock of E. coli ATCC 47076 was grown overnight (1 ml in 9 ml LB medium) in a shaker incubator (200 rpm at 37° C.) until the OD600nm of the medium reached 1.6-1.8. […] The Bacterial suspension was adjusted to 10^8 CFU/ml by dilution with sterile medium. The Bacterial cells were then washed three times with 0.9% NaNO3. The NaNo3 washing cycles was performed by transferring 5 ml of the bacterial suspensions into 15 ml test tubes and subjecting the suspension to centrifugation at 4000 rpm at 4° C. for 5 minutes, followed by removal of the supernatant and re-suspension of the bacterial cell pellet in 5 ml of 0.9% NaNO3. The bactericidal activity of various concentration combinations of silver ions (from AgNO3) and menthol (solubilized by the addition of 0.5% TWEEN 20) was then assessed by adding 5 ml of the tested combinations to the bacterial cell pellets prepared as described hereinbelow and re-suspending the cell pellets by vortex. A test tube containing only 0.9% NaNO3 served as control. The bacterial suspensions thus obtained were transferred to sterile glass tubes to reduce potential cell adsorption to the walls, and kept covered at 37° C. throughout the testing period. Following 5 minutes of static incubation, 100 μl samples of the treated bacterial suspension were removed, and […] decimal dilutions in NaNO3 0.9% of the suspension were dropped onto LB agar plates. The level of bacterial proliferation was assessed by counting the number of colonies that grew on the plates and calculating the CFU/ml and log10 CFU/ml following 18 hours of incubation at 37° C. Higher log10 CFU/ml calculated for a bacterial suspension, incubated with a specific combination, is indicative of a lower level of bactericidal activity of that combination. The bacterial growth protocol was essentially as described above only that bacteria cell lines were grown in BHI growth medium (and following the growth of the cells in the medium, the bacterial suspension was adjusted to 10^7 CFU/ml by dilution with sterile medium). In addition, in these experiments, the static incubation of each bacterial suspension with the silver ion+menthol combination was for 0, 30 and 60 minutes. […] Cells incubated with NaNO3 0.9% (w/v) solution alone, without the addition of any antiseptic agent, served as control. […] S. Block, Editor. 2000, Lippincott Williams and Wilkins, pp 1305-1328. […] A baseline level was defined as the observed bacteria growth at time 0 when no antiseptic agent was added to the bacterial suspension.

[2] = tested on: Klebsiella pneumoniae; conditions: baseline 6.8
Description: (§1) Various bacterial cells lines were obtained from the clinical strains collection of the Laboratory of Molecular Epidemiology and Antimicrobial Resistance, Tel Aviv Sourasky Medical Center. The bactericidal activity of the tested antiseptic combinations was thus tested against Klebsiella pneumoniae, a Methicillin Resistant clinical strain of Staphylococcus aureus (MRSA), a clinical strain of Staphylococcus epidermis, a clinical strain of Extended Spectrum β-lactamase producing Escherichia coli, a clinical strain of Multi Drug Resistant Acinetobacter baumannii, and a clinical strain of Multi Drug Resistant Pseudomonas aeruginosa.
(§2) The bacterial growth protocol was essentially as described above only that bacteria cell lines were grown in BHI growth medium (and following the growth of the cells in the medium, the bacterial suspension was adjusted to 10^7 CFU/ml by dilution with sterile medium). In addition, in these experiments, the static incubation of each bacterial suspension with the silver ion+menthol combination was for 0, 30 and 60 minutes.
(§3) The effect of a combination of 0.01% silver ions and 0.05% menthol (solubilized by 0.5% (v/v) TWEEN 20) on the growth and viability of various types of bacteria was evaluated.
(§4) Cells incubated with NaNO3 0.9% (w/v) solution alone, without the addition of any antiseptic agent, served as control.
(§5) Table 2 presents the log10 CFU/ml calculated for different types of bacterial cell suspensions incubated for 0, 30 and 60 minutes with no antiseptic agent (control) or either 0.01% silver ions (0.01% AgNO3) alone, 0.05% menthol alone or a combination of 0.01% silver ions and 0.05% menthol. A baseline level was defined as the observed bacteria growth at time 0 when no antiseptic agent was added to the bacterial suspension.

[3] = tested on: Methicillin Resistant clinical strain of Staphylococcus aureus (MRSA); conditions: baseline 6.1
Description: as §1, §2, §3, §4, §5

[4] = tested on: clinical strain of Extended Spectrum β-lactamase producing Escherichia coli; conditions: baseline 5.9
Description: as §1, §2, §3, §4, §5

[5] = tested on: clinical strain of Multi Drug Resistant Acinetobacter baumannii; conditions: baseline 6.4
Description: as §1, §2, §3, §4, §5

[6] = tested on: clinical strain of Multi Drug Resistant Pseudomonas aeruginosa; conditions: baseline 6.5
Description: as §1, §2, §3, §4, §5

[7] = tested on: clinical strain of Staphylococcus epidermis; conditions: baseline 5.4
Description: as §1, §2, §3, §4, §5

| SMILES | log10 CFU/ml of bacteria ([1]; treated for 0 minutes) [log10 CFU/ml] | log10 CFU/ml of bacteria ([1]; treated for 30 minutes) [log10 CFU/ml] | log10 CFU/ml of bacteria ([1]; treated for 60 minutes) [log10 CFU/ml] | log10 CFU/ml of bacteria ([2]; treated for 0 minutes) [log10 CFU/ml] | log10 CFU/ml of bacteria ([2]; treated for 30 minutes) [log10 CFU/ml] | log10 CFU/ml of bacteria ([2]; treated for 60 minutes) [log10 CFU/ml] | log10 CFU/ml of bacteria ([3]; treated for 0 minutes) [log10 CFU/ml] | log10 CFU/ml of bacteria ([3]; treated for 30 minutes) [log10 CFU/ml] | log10 CFU/ml of bacteria ([3]; treated for 60 minutes) [log10 CFU/ml] | log10 CFU/ml of bacteria ([4]; treated for 0 minutes) [log10 CFU/ml] | log10 CFU/ml of bacteria ([4]; treated for 30 minutes) [log10 CFU/ml] | log10 CFU/ml of bacteria ([4]; treated for 60 minutes) [log10 CFU/ml] | log10 CFU/ml of bacteria ([5]; treated for 0 minutes) [log10 CFU/ml] | log10 CFU/ml of bacteria ([5]; treated for 30 minutes) [log10 CFU/ml] | log10 CFU/ml of bacteria ([5]; treated for 60 minutes) [log10 CFU/ml] | log10 CFU/ml of bacteria ([6]; treated for 0 minutes) [log10 CFU/ml] | log10 CFU/ml of bacteria ([6]; treated for 30 minutes) [log10 CFU/ml] | log10 CFU/ml of bacteria ([6]; treated for 60 minutes) [log10 CFU/ml] | log10 CFU/ml of bacteria ([7]; treated for 0 minutes) [log10 CFU/ml] | log10 CFU/ml of bacteria ([7]; treated for 30 minutes) [log10 CFU/ml] | other results |
| --- | --- | --- | --- | --- | --- | --- | --- | --- | --- | --- | --- | --- | --- | --- | --- | --- | --- | --- | --- | --- | --- |
| O=[N+]([O-])[O-].[Ag+] [0.01% AgNO3, silver nitrate] | 6.4 | 0 | 0 | 0 | 0 | 0 | 5.4 | 0 | 0 | 4.8 | 0 | 0 | 6.3 | 0 | 0 | 5.1 | 0 | 0 | 0 | 0 | log10 CFU/ml of bacteria ([7]; treated for 60 minutes): 0 log10 CFU/ml |
| CC(C)[C@H]1CC[C@@H](C)C[C@@H]1O [0.05% Menthol, 5-methyl-2-propan-2-yl-cyclohexan-1-ol] | 5.3 | 0 | 0 | 6.2 | 4.9 | 3.8 | 6.3 | 6.3 | 6.2 | 4.9 | 4.9 | 4.9 | 6.4 | 6.3 | 6.2 | 5.8 | 3.5 | 2.5 | 5.4 | 5.4 | log10 CFU/ml of bacteria ([7]; treated for 60 minutes): 5.3 log10 CFU/ml |
